# Results published in patent US12544375B2, “Small molecule therapeutic for parkinson's disease paired with a biomarker of therapeutic activity” (The Board of Trustees of the Leland Stanford Junior …, priority 2019, dated 2026).
# Assays:
# [1] = test system: LRRK2^G2019S, PINK1 null and SNCA^A53T flies; experiment: Fly lifespan (survival curves); format: in vivo
# Experimental: FIG. 4A-FIG. 4I. Miro1 Reducer Rescues PD-Relevant Phenotypes in Flies. For all panels, when Miro1 Reducer was not added, the same volume of the solvent, DMSO, was supplied in fly food. Drug administration (2.5 μM) was started from day 2. (FIG. 4A-FIG. 4C) Survival curves of LRRK2^G2019S (FIG. 4A), PINK1^B9 (imprecise excision, null) and PINK1^RV (the precise excision control for PINK1^B9) (FIG. 4B), and SNCA^A53T flies (FIG. 4C). n=58-150. (FIG. 4D) Dopaminergic (DA) neurons in the PPM1/2 clusters of 22-day old flies were immunostained with anti-TH. (FIG. 4D-FIG. 4F) Quantification of the DA neuron number in the PPL1 or PPM1/2 cluster (total number divided by 2 for each brain). (FIG. 4D) LRRK2^G2019S. n=6-8 brains. (FIG. 4E) PINK1^B9 (“−”) and PINK1^RV (“+”). n=9-16. (FIG. 4F) SNCA^A53T. n=9-11. (FIG. 4G-FIG. 4I) Climbing ability (Average PI±S.E.M) of adult flies. n=24-47 flies.
# In order to cross-validate the neuroprotective effect of Miro1 Reducer in vivo, we fed the compound to three well-established fly PD models: (1) Actin-GAL4>UAS-LRRK2^G2019S (ubiquitous expression of human pathogenic LRRK2); (2) PINK1 null; and (3) Elav-GAL4>UAS-SNCA^A53T (neuronal expression of human pathogenic alpha-synuclein). […]
# Fly Behavior and Biochemical Assays. […] Flies were transferred into fresh vials and the numbers of dead and escaped flies were scored 3 times a week. […]
# [2] = test system: LRRK2^G2019S, PINK1 null and SNCA^A53T flies; experiment: Dopaminergic neuron number in fly PD models (anti-TH); format: in vivo; conditions: 2.5 μM in food, all three PD models
# Experimental: FIG. 4A-FIG. 4I. Miro1 Reducer Rescues PD-Relevant Phenotypes in Flies. For all panels, when Miro1 Reducer was not added, the same volume of the solvent, DMSO, was supplied in fly food. Drug administration (2.5 μM) was started from day 2. (FIG. 4A-FIG. 4C) Survival curves of LRRK2^G2019S (FIG. 4A), PINK1^B9 (imprecise excision, null) and PINK1^RV (the precise excision control for PINK1^B9) (FIG. 4B), and SNCA^A53T flies (FIG. 4C). n=58-150. (FIG. 4D) Dopaminergic (DA) neurons in the PPM1/2 clusters of 22-day old flies were immunostained with anti-TH. (FIG. 4D-FIG. 4F) Quantification of the DA neuron number in the PPL1 or PPM1/2 cluster (total number divided by 2 for each brain). (FIG. 4D) LRRK2^G2019S. n=6-8 brains. (FIG. 4E) PINK1^B9 (“−”) and PINK1^RV (“+”). n=9-16. (FIG. 4F) SNCA^A53T. n=9-11. […]
# Immunocytochemistry and Confocal Microscopy. PI (P4170, Sigma) at 2.5 μg/ml or 4′, 6-Diamidino-2-phenylindole (Dapi-D9542, Sigma) at 0.5 μg/ml was applied in culture media at room temperature in the dark for 10 min, MitoSox (M36008, Invitrogen) at 2 μM was applied in culture media at 37° C. for 10 min, or TMRM (T668, Molecular Probes) at 25 nM was applied in culture media at 37° C. for 30 min, and cells were washed with HBSS and imaged immediately in a 35-mm petridish containing the Hibernate E low-fluorescence medium with a 63×/N.A.0.9 water-immersion objective. […]
smiles,measurement,setting,value
O=C(Nc1ccc(Nc2cc(-n3ccnc3)ncn2)cc1)Nc1cccc(F)c1 [Miro1 Reducer],long-term toxicity (lifespan),"[1]; 2.5 μM in food from adulthood, wild-type or PD flies",no long-term toxicity
same,lifespan of SNCA^A53T flies,"[1]; 2.5 μM in food, Log-Rank P=0.00019 0 μM v.s. 2.5 μM",extended the shortened lifespan
same,age-dependent dopaminergic neuronal loss,[2],significantly rescued
